Data: patent publication US6858399B2, “Test for oxidative stress using cell suspensions” (priority 1998, dated 2005)

Key:
erythrocytes [1] = conditions: Ferrali, et al, Biochem Pharm. 38, 1819-1825 (1989); cited from earlier work
brain cell fractions = experiment: PC biosynthesis of brain cell fractions; assay type: cell-based; conditions: brain cell fractions incubated 30 minutes; agent concentration (100 mM ethanol, 1 mM others)
Experimental: (§1) PC extraction procedure: Two ml of chloroform and 0.5 ml of water were added to each sample. Tubes were vortexed and centrifuged for 5 minutes to clear the upper and lower phases. The upper phase was aspirated and the lower phase washed by adding 2 ml of wash solution containing 50% methanol, 45% water and 5% 7.4% KCl. The samples were vortexed and centrifuged 5 minutes to clear the upper and lower phases. The upper phase was aspirated and the lower phase was washed again in 2 ml wash solution. After the phases were cleared by centrifugation, the lower phase was carefully removed, placed in a glass test tube, dried, solubilized in scintillation fluid and counted in a Beckman beta counter. Agent-induced alterations in the incorporation of labeled choline into PC was used as a measure of changes in cellular PC biosynthesis.
(§2) PC biosynthesis in isolated cells: Aliquots (0.75 ml) of Waymouth 752/1 media were placed in glass test tubes. Aliquots (0.01) of DMSO and water or DMSO and water containing various test agents were added to the tubes along with 0.02 ml [^3H]-choline [0.2 μCi and 15 pmoles choline]. Incubations were started by adding 0.5 ml aliquotes of cells suspended in Waymouth 752/1 media to the test tubes and placing the tubes in a shaking water bath at 37° C. Incubations were stopped after the appropriate incubation period (2-90 minutes) by addition of 2 ml of methanol containing 1% 1N HCl. Labeled PC was extracted by methods described above for cultured cells. Agent-induced increases in the incorporation of labeled choline into PC were used to measure increases in cellular PC biosynthesis.
Cells were isolated from brain homogenates according to the methods described in the methodology section under “PC biosynthesis in isolated cells”.

cultured hepatocytes = experiment: PC biosynthesis in primary cultures of adult rat hepatocytes, 72 h incubation; assay type: cell-based; conditions: for Effect on the ethanol/acetaminophen-induced decrease in cellular PC biosynthesis / Change in cellular PC biosynthesis: 72 hours; for Effect on the ethanol/acetaminophen-induced decrease in cellular PC biosynthesis: co-incubation with 100 mM ethanol or 1 mM acetaminophen; for Change in cellular PC biosynthesis: 100 mM ethanol, 1 mM acetaminophen
Experimental: Male sprague Dawley rats (Zivic-Miller) weighing 200 to 350 grams were treated with a 50 mg/kg dose of phenobarbital (ip) for 3 days prior to perfusion. During this 3 day period, the animals were also given water ad libitum containing 0.1% sodium phenobarbital. The animal was anesthetized with ether under a fume hood, then transferred to the surgical table with the abdomen exposed. The belly was shaved and cleansed with 70% ethanol and Clinidine. The abdominal skin was removed with scissors and forceps. An incision was made along the base of the abdomen and the renal artery was tied off.
After the hepatic vein was cannulated with a 16 gauge catheter, the liver was washed with a balanced salt solution containing EDTA and Tricine. The hepatic artery was cannulated with a 16 gauge catheter. After 5 minutes of reverse flow perfusion was practiced to facilitate the wash cycle. After the blood is washed from the liver, the color of the liver changes from deep red to a brownish color.
The liver was then infused with Collagenase solution (112.5 mg/300 ml of Waymouth 752/1 media) bubbled with 5% CO2. After 5 minutes, reverse flow of Collagenase into the liver was accomplished, followed by reverse to normal flow after 5 minutes. Normal flow was continued until liver tissue was breaking down and ready for collection. Complete liver wash and perfusion should take about 30 minutes.
The perfused liver was collected with a strainer and transferred to an Erlenmeyer flask containing 50 ml of original Collagenase solution. The liver was minced using a gyratory water bath at 37° C. and allowed to swirl for no longer than 15 minutes. The solution was then filtered through a sterile gauze into centrifuge tubes and spun in a table top centrifuge for 5 minutes at 1000 rpm. (70×g). Aspirate media and suspended cells were placed in Waymouth 752/1 media containing 20% isodensity Percol and were then centrifuged for 4 minutes at 70×g. Cells were washed three times and resuspended in Waymouth 752/1 media. Samples of 0.5 ml were plated on 35 mm collagen-coated plastic culture dishes containing 0.75 ml of supplemented Waymouth 752/1 media.
(§3) PC biosynthesis in cultured cells: Aliquots (0.01 ml) of DMSO and water or DMSO and water containing various agents were added to medium with 2-hour monolayers of cells. After the appropriate agent-incubation period, a 0.02 ml aliquot of [^3H]-choline (0.2 μCi and 15 pmoles of choline]) was added to Waymouth 752/1 {1.25 ml} media. Incubations were stopped after 90 minutes by addition of 2 ml of methanol containing 1% 1N HCl. Cells were removed from the culture dishes by scraping with TEFLON™-coated spatula and placed in glass test tubes. (Lamb, et al., Hepatology 19: 174 (1994))
as §1

rat red blood cells = experiment: Rat RBC PC biosynthesis; assay type: cell-based; conditions: rat RBC's, 10 minutes incubation
human liver cells = experiment: PC biosynthesis of human liver cells (labeled choline incorporation into PC); assay type: cell-based; conditions: for Alteration in cellular PC biosynthesis: human liver cells incubated 90 minutes, 100 mM ethanol or 1 mM acetaminophen
Experimental: as §3, §1
as §2, with “Agent-induced increases in the incorporation of labeled choline into PC were used to measure increases in cellular PC biosynthesis.” left out

rat liver cells = experiment: PC biosynthesis of rat liver cells (labeled choline incorporation into PC); assay type: cell-based; conditions: for Alteration in cellular PC biosynthesis: rat liver cells incubated 90 minutes, 100 mM ethanol or 1 mM acetaminophen
cultured astrocyte = experiment: Cultured astrocyte PC biosynthesis; assay type: cell-based; conditions: for PC biosynthesis, Percent control of + SEM: cultured astrocytes, 100 mM ethanol, 1 mM APAP, 1 mM THC, 1 mM 4-MP, alone or combined
human red blood cells = experiment: PC biosynthesis of human RBC's; assay type: cell-based; conditions: for PC biosynthesis percent of control ± SEM: 30 minutes incubation, 100 mM ethanol, 1 mM APAP, 1 mM THC, 10 mM allyl alcohol, 1 mM cocaine, 1 mM BTM, with and without 4-MP
[2] = system: cells isolated from rat intestine; experiment: PC biosynthesis in cells isolated from rat intestine; assay type: cell-based; conditions: 1 mM APAP, 30 minutes
cultured rat liver cells = experiment: PC biosynthesis of cultured rat liver cells from 3 and 20 month-old rats, 24 h; assay type: cell-based; conditions: 1 mM APAP, 100 mM ETOH, mean ± SEM of nine values; for PC biosynthesis, 3 Month: cells from 3 month-old male rats; for PC biosynthesis, 20 Month: cells from 20 month-old male rats
Experimental: as §3, §1

[3] = system: cells isolated from rat lung; experiment: PC biosynthesis in cells isolated from rat lung; assay type: cell-based; conditions: 1 mM APAP, 30 minutes
erythrocytes [4] = experiment: PC biosynthesis in cells isolated from rat blood (erythrocytes); assay type: cell-based; conditions: 1 mM APAP, 30 minutes
Experimental: Preparation of red cell fractions: Rat or human blood was placed in Sorval tubes and, centrifuged at 3000 rpm for 10 minutes under refrigeration. The supernate was removed and the pellet of RBC's resuspended in PBS at 4 times the volume of the supernate. This may be frozen in 2 ml aliquots at −70° C.

cultured liver cells = experiment: PC biosynthesis of cultured liver cells incubated 24 and 72 hours with and without vitamin E phosphate; assay type: cell-based; conditions: 24 and 72 hours with and without 50 μM vitamin E phosphate
Experimental: After the appropriate agent-incubation period, a 0.02 ml aliquot of [^3H]-choline (0.2 μCi and 15 pmoles of choline]) was added to Waymouth 752/1 {1.25 ml} media. […] Cells were removed from the culture dishes by scraping with TEFLON™-coated spatula and placed in glass test tubes. (Lamb, et al., Hepatology 19: 174 (1994))
Alterations in PC biosynthesis were studied using cultured liver cells incubated 24 and 72 hours with and without 50 μM vitamin E phosphate (VEP).

C=CC=O [acreolein]
Adverse effects on erythrocytes (erythrocytes [1]): deleterious effects on the cells

O=S(=O)([O-])[O-].[Fe+2] [FeSO4]
Agent-induced alterations in PC biosynthesis, Percent control of + SEM (brain cell fractions): 226 ± 8 Percent control

Cc1c(C)c2c(c(C)c1OC(=O)CCC(=O)O)CC[C@@](C)(CCC[C@H](C)CCC[C@H](C)CCCC(C)C)O2 [VES, vitamin E succinate]
Effect on the ethanol/acetaminophen-induced decrease in cellular PC biosynthesis (cultured hepatocytes): reduced

iron
PC biosynthesis % of Control ± SEM (rat red blood cells): 919 ± 73 % of Control

Cc1cn[nH]c1 [4-MP, 4-methylpyrazole]
Effect on ethanol and acetaminophen-induced increases in cellular PC biosynthesis (human liver cells; 1 mM 4-methylpyrazole, 90 minutes, with 100 mM ethanol or 1 mM acetaminophen): significantly decreases | Effect on ethanol-induced and acetaminophen-induced increases in cellular biosynthesis (rat liver cells; 4-methylpyrazole, 90 minutes, with 100 mM ethanol or 1 mM acetaminophen): significantly reduced | Effect on agent-induced increase in PC biosynthesis (cultured astrocyte; 1 mM 4-MP with ethanol, APAP, THC or combinations): Å values without 4-MP are significantly increased (p < 0.05) above controls. 4-MP significantly reduced (p < 0.05) the agent-induced increase in PC biosynthesis. | Effect on the ethanol/acetaminophen-induced decrease in cellular PC biosynthesis (cultured hepatocytes): reduced | Effect on drug-induced increases in PC biosynthesis (human red blood cells; 30 minutes, 4-MP added to each agent): significantly (p<0.05) reduces

CCCCCc1cc(O)c2c(c1)OC(C)(C)[C@@H]1CCC(C)=C[C@@H]21 [THC, Δ-9-tetrahydrocannabinol]
Agent-induced alterations in PC biosynthesis, Percent control of + SEM (brain cell fractions): 293 ± 21 Percent control | PC biosynthesis % of Control ± SEM (rat red blood cells): 1142 ± 65 % of Control | PC biosynthesis, Percent control of + SEM (cultured astrocyte): 201 ± 11 Percent control | PC biosynthesis percent of control ± SEM (human red blood cells): 433 ± 30% of control

COC(=O)[C@H]1[C@@H](OC(=O)c2ccccc2)C[C@@H]2CC[C@H]1N2C [cocaine]
PC biosynthesis % of Control ± SEM (rat red blood cells): 458 ± 7 % of Control | PC biosynthesis percent of control ± SEM (human red blood cells): 292 ± 10% of control

CC(=O)Nc1ccc(O)cc1 [APAP, acetaminophen]
Alteration in cellular PC biosynthesis (human liver cells): significantly (p<0.05) increase | PC biosynthesis percent of control ± SEM, intestine [2]: 287 ± 13% of control | PC biosynthesis, 3 Month (cultured rat liver cells): 137 ± 11% of control | PC biosynthesis, 20 Month (cultured rat liver cells): 38 ± 2% of control | PC biosynthesis percent of control ± SEM, lung [3]: 471 ± 38% of control | Alteration in cellular PC biosynthesis (rat liver cells): significantly (p<0.05) increased | PC biosynthesis percent of control ± SEM, erythrocytes (erythrocytes [4]): 236 ± 13% of control | PC biosynthesis % of Control ± SEM (rat red blood cells): 655 ± 26 % of Control | PC biosynthesis, Percent control of + SEM (cultured astrocyte): 159 ± 15 Percent control | Change in cellular PC biosynthesis (cultured hepatocytes): significant decrease | PC biosynthesis percent of control ± SEM (human red blood cells): 512 ± 27% of control

C=CCO [allyl alcohol]
Adverse effects on erythrocytes (erythrocytes [1]): could not demonstrate the adverse effects | PC biosynthesis % of Control ± SEM (rat red blood cells): 1315 ± 99 % of Control | PC biosynthesis percent of control ± SEM (human red blood cells): 377 ± 3% of control

ClC(Cl)(Cl)Br [BTM, bromotrichloromethane]
Agent-induced alterations in PC biosynthesis, Percent control of + SEM (brain cell fractions): 194 ± 25 Percent control | PC biosynthesis % of Control ± SEM (rat red blood cells): 533 ± 29 % of Control | PC biosynthesis percent of control ± SEM (human red blood cells): 728 ± 3% of control

C=CC(=O)O [acrylic acid]
Adverse effects on erythrocytes (erythrocytes [1]): could not demonstrate the adverse effects

Cc1c(C)c2c(c(C)c1OP(=O)(O)O)CCC(C)(CCCC(C)CCCC(C)CCCC(C)C)O2 (stereo not drawn) [vitamin E phosphate]
Alterations in PC biosynthesis (cultured liver cells): incubation time-dependent decreases in PC biosynthesis unless vitamin E phosphate was added

CCO [ethanol]
Agent-induced alterations in PC biosynthesis, Percent control of + SEM (brain cell fractions): 173 ± 8 Percent control | Alteration in cellular PC biosynthesis (human liver cells): significantly (p<0.05) increase | PC biosynthesis, 3 Month (cultured rat liver cells): 147 ± 13% of control | PC biosynthesis, 20 Month (cultured rat liver cells): 59 ± 1% of control | Alteration in cellular PC biosynthesis (rat liver cells): significantly (p<0.05) increased | PC biosynthesis % of Control ± SEM (rat red blood cells): 374 ± 19 % of Control | PC biosynthesis, Percent control of + SEM (cultured astrocyte): 199 ± 14 Percent control | PC biosynthesis (cultured hepatocytes; 72 h, 100 mM ETOH, 1 mM APAP, 0.5 mM 4-MP, 200 units SOD, 800 units CAT, 2 mM DEF, 0.025 mM 20:4, 0.25 mM 16:0, 6-9 experimental values): 39 ± 2% of control | Change in cellular PC biosynthesis (cultured hepatocytes): significant decrease | PC biosynthesis percent of control ± SEM (human red blood cells): 222 ± 9% of control

B1: CAT: catalase (protein, UniProt P00432 2-527, looked up)
Catalase: ADNRDPASDQMKHWKEQRAAQKPDVLTTGGGNPVGDKLNSLTVGPRGPLLVQDVVFTDEMAHFDRERIPERVVHAKGAGAFGYFEVTHDITRYSKAKVFEHIGKRTPIAVRFSTVAGESGSADTVRDPRGFAVKFYTEDGNWDLVGNNTPIFFIRDALLFPSFIHSQKRNPQTHLKDPDMVWDFWSLRPESLHQVSFLFSDRGIPDGHRHMNGYGSHTFKLVNANGEAVYCKFHYKTDQGIKNLSVEDAARLAHEDPDYGLRDLFNAIATGNYPSWTLYIQVMTFSEAEIFPFNPFDLTKVWPHGDYPLIPVGKLVLNRNPVNYFAEVEQLAFDPSNMPPGIEPSPDKMLQGRLFAYPDTHRHRLGPNYLQIPVNCPYRARVANYQRDGPMCMMDNQGGAPNYYPNSFSAPEHQPSALEHRTHFSGDVQRFNSANDDNVTQVRTFYLKVLNEEQRKRLCENIAGHLKDAQLFIQKKAVKNFSDVHPEYGSRIQALLDKYNEEKPKNAVHTYVQHGSHLSAREKANL
Effect on the ethanol/acetaminophen-induced decrease in cellular PC biosynthesis (cultured hepatocytes): reduced
